The test system of one data set is Splenocytes. The conditions noted are these: splenocytes from mice injected peritoneally; cited from earlier work.
Data set [1] deals with lymphocyte subsets (CD3, CD4, CD8, MHC class II, CD21). Put plainly: Lymphocyte subpopulations by flow cytometry, cats. It is filed as in vivo, Tabby cats. As to the method: Blood leukocytes were separated on Histopaque-1119 (Sigma, St. Louis, Mo.) and cells washed three times with phosphate-buffered saline (PBS, pH 7.4). Contaminating RBC were lysed with NH4Cl (8.4 g/L) and cell viability determined by trypan blue exclusion. Lymphocyte subsets were determined by FACScan flow cytometry (Becton Dickinson, San Jose, Calif.) immediately after cell preparation. Isolated PBMC were resuspended to 1×10^7 cells/mL phosphate buffered saline (PBS) supplemented with 2% gamma globulin-free serum, 5% goat serum and 0.2 g/L sodium azide (Baker, Phillipsburg, N.J.). For immunofluorescence analysis, 5×10^5 cells were incubated for 30 minutes on ice with a previously determined optimal concentration of mouse anti-cat primary monoclonal antibody. The antibodies were specific for the following lymphocyte subsets: total T cells (anti-CD3), T-helper cells (anti-CD4), T cytotoxic/suppressor cells (anti-CD8), lymphocytes expressing major histocompatibility complex (MHC) class II antigens (anti-MHC class II), and B cells (anti-CD21). Cells were then washed three times and incubated with a secondary antibody, fluorescein isothiocyanate (FITC)-conjugated goat F(ab′)2 anti-mouse IgG (H+L) (Caltag, Burlingame, Calif.) for 30 minutes on ice to visualize the bound antibody. Stained cells were fixed in 4% paraformaldehyde in preparation for acquisition. Appropriate negative controls were included to correct the level of background fluorescence. Fluorescence analysis was performed on lymphocytes gated by forward and side scatter. Data were expressed as a percentage of positive-staining cells corrected for cells stained nonspecifically with the secondary antibody.
In general terms: A flow cytometer gives signals particle by particle.

The subject of another data set is dogs. Put plainly: Delayed type hypersensitivity (skin induration) response in dogs. It is filed as in vivo, Beagle dogs. Conditions: for DTH response to PHA / DTH response to vaccine: dogs. How it is done:
Skin induration response was assessed in all dogs on weeks 0, 6, and 12. Dogs were injected intradermally in the flank area with saline (8.5 g/L; control), an attenuated polyvalent vaccine containing canine distemper virus, canine adenovirus type-2, canine parainfluenza virus and parvovirus (Vanguard 5, Smithkline Beacham, West Chester, Pa.; specific antigen), and PHA (0.5 g/L; nonspecific antigen). The doses of vaccine and PHA used were previously determined to provide optimal skin response in Beagle dogs of similar age. The injection site was clipped and wiped with 70% ethyl alcohol. The injection volume was 100 μL. Skin induration was measured at 0, 24, 48 and 72 h post-injection with the aid of a pressure-sensitive digital micrometer (Mitsutoyo, Tokyo, Japan) and response was expressed as a percentage of skin thickness measured at 0 h.

For data set [2], the system named is IL-2. The data set can be described thus: IL-2 production by PHA-stimulated whole blood cultures, dogs. Format: in vivo, Beagle dogs. As to the method:
Whole blood was diluted 1:2 with RPMI-1640 supplemented with Hepes and antibiotics (described earlier) and 400 μL of diluted blood were pipetted into 48-well plates (Costar, Cambridge, Mass.). Cells were stimulated with PHA (400 μL of a 5 μg/mL solution) for 48 hours at […] in a 5% CO2 atmosphere. The plates were centrifuged at 200×g for 10 minutes and the supernatant was frozen at −80° C. The IL-2 content of the culture supernatant was determined in triplicate by ELISA (Intergen, Purchase, N.Y.). The polyclonal anti-human IL-2 cross-reacted with canine IL-2 and recombinant human IL-2 was used as the standard.

Data set [3] has as its system transplantable murine mammary tumor cell line. The conditions noted are these: mice, dietary lutein; cited from earlier work.
Data set [4] relates to malondialdehyde (MDA) production. Put plainly: Lipid peroxidation (TBARS) assay, dog plasma. Format: in vivo, Beagle dogs. The conditions noted are these: dogs. How it is done:
Plasma lipid peroxidation activity was determined by measuring malondialdehyde (MDA) production. The standard used was 1,1,3,3-tetramethoxypropane JMP) (Sigma Chem. Co., St. Louis, Mo.). Duplicate 500 μL plasma samples were pipetted into 15 ml, glass tubes and 3 mL of 10 g/L phosphoric acid and 1 ml of 6 g/L TBA solution were added. The mixture was boiled in a water bath for 45 minutes. Tubes were allowed to cool and the TBA-MDA complex was extracted with 4 ml of n-butanol. The butanol layer was separated by centrifugation at 1,000×g for 10 minutes and absorbance was measured on at 532 nm (Beckman, Fullerton, Calif.). The TBARS activity was expressed in nmole MDA/L plasma.

A short description of data set [5]: Stability of lutein in prepared cat food. The conditions noted are these: diets mixed weekly, stored at −20° C. in sealed containers under nitrogen gas, analyzed periodically. Format: physicochemical. As to the method:
Prior to being fed to the cats, the lutein-containing diet was mixed with additional basal diet to achieve the desired lutein concentration. The final diets were mixed weekly and stored at −20° C. in sealed containers undernitrogen gas. […] Food and water were available ad libitum. Cats were housed (7 cats/pen; 1.5×5.0 m) in a temperature (20 to 22° C.) and light (14 h light) controlled facility.

For data set [6], the system named is IL-2. The data set can be described thus: IL-2 production in Con A-stimulated whole blood cultures, cats. It is filed as in vivo, Tabby cats. As to the method: Whole blood was diluted 1:2 in RPMI-1640 complete medium and cultured for 48 hours in the presence of 5 μg/mL Con A. The conditioned medium was removed and frozen at −80° C. The IL-2 concentrations were determined in duplicate by ELISA using a human IL-2 kit (Intergen, Purchase, N.Y). The human anti-IL-2 was previously determined to cross-react with feline IL-2.

[7] abbreviates: throughout the experimental period.

As to `CC1=C[C@H](O)CC(C)(C)[C@H]1/C=C/C(C)=C/C=C/C(C)=C/C=C/C=C(C)/C=C/C=C(C)/C=C/C1=C(C)C[C@@H](O)CC1(C)C` [lutein], the “Antibody response to T-dependent antigens” value in the data set on Splenocytes is reported as “enhanced”. Besides, the “Total number of T cells (CD3)” value in data set [1] (cats) is listed as “did not influence significantly”. In data set [1] (cats fed 10 mg lutein, week 12), the “Percentage of CD21+ B cells” value is on record as “significantly elevated”. In data set [1] (cats, any of the time periods), the “Percentage of CD8+ T cytotoxic cells” value was “not influenced significantly”, the “Percentage of MHC class II+ cells” value was “not influenced significantly” and the “Ratio of CD4:CD8” value is recorded as “not influenced significantly”. Besides, the “DTH response to PHA vs unsupplemented dogs” value in the data set on dogs (dogs fed 20 mg lutein, week 12) is “significantly higher”. Also, the “DTH response to PHA” value in the data set with dogs (week 6, 48 and 72 h) is listed as “no significant treatment difference”. The “DTH response to vaccine” value in the data set on dogs (week 6, 48 and 72 h post-injection) is reported as “dose-related”. The “DTH response to vaccine” value with dogs (week 6, 24 h) is given as “not significant”. The “DTH response to PHA” value in the data set with dogs (week 6, 24 h post-injection) is given as “dose-related”. Besides, in the data set with dogs (week 12), the “DTH response to vaccine” value is “no significant dietary effect”. In the data set on dogs (week 12, 24, 48 and 72 h, all doses), the “DTH response to PHA” value was “general dose-dependent increase”. In addition, the “Production of IL-2 by PHA-stimulated PBMC among dietary treatments” value in the data set on IL-2 [2] (setting [7]) was “did not differ significantly”. Moreover, the “Concentration of IL-2 in culture medium, average” value in the data set on IL-2 [2] (throughout the study) was determined as 15.7 ± 0.4 ng/mL. Moreover, in data set [3], the Mammary tumor incidence result is “decreases”, the Tumor growth result is “decreases” and the Tumor latency result is on record as “shortened”. The “Effect on plasma TBARS activity” value in data set [4] is on record as “did not significantly affect”. Moreover, in data set [4] (across all treatments and periods), the “Plasma TBARS activity, average” value is 95.8±0.1 nmol MDA/L. Moreover, the “Destruction of lutein in prepared food” value in data set [5] was “no significant destruction”. In the data set with IL-2 [6] (setting [7]), the IL-2 production result is listed as “no significant differences”. Moreover, the “Average concentration of IL-2 in Con A-stimulated cultures” value in the data set with IL-2 [6] (throughout the study) came out at 15.1 ± 0.79 ng/mL.

These data come from patent publication US20010006673A1, “LUTEIN- CONTAINING SUPPLEMENT AND PROCESS FOR ENHANCING IMMUNE RESPONSE IN ANIMALS” (priority 1998, published 2001).
